Test results: US6667312B2, “Thioether substituted imidazoquinolines” (3M Innovative Properties Company, priority 2000, dated 2003)

How the values were obtained:
interferon (α) = test: Cytokine Induction in Human Cells: interferon; type: cell-based; conditions: human PBMC, 18 to 24 hours, tested 30-0.014 μM, interferon (α) by ELISA; read-out: Lowest Effective Concentration (μM) Interferon
Source text: (§1) An in vitro human blood cell system is used to assess cytokine induction. Activity is based on the measurement of interferon and tumor necrosis factor (α) (IFN and TNF, respectively) secreted into culture media as described by Testerman et. al. In “Cytokine Induction by the Immunomodulators Imiquimod and S-27609”, Journal of Leukocyte Biology, 58, 365-372 (September, 1995).
(§2) Whole blood from healthy human donors is collected by venipuncture into EDTA vacutainer tubes. Peripheral blood mononuclear cells (PBMC) are separated from whole blood by density gradient centrifugation using Histopaque®-1077. Blood is diluted 1:1 with Dulbecco's Phosphate Buffered Saline (DPBS) or Hank's Balanced Salts Solution (HBSS). The PBMC layer is collected and washed twice with DPBS or HBSS and resuspended at 4×10^6 cells/mL in RPMI complete. The PBMC suspension is added to 48 well flat bottom sterile tissue culture plates (Costar, Cambridge, Mass. or Becton Dickinson Labware, Lincoln Park, N.J.) containing an equal volume of RPMI complete media containing test compound.
(§3) The compounds are solubilized in dimethyl sulfoxide (DMSO). The DMSO concentration should not exceed a final concentration of 1% for addition to the culture wells. The compounds are generally tested at concentrations ranging from 30-0.014 μM.
(§4) The solution of test compound is added at 60 μM to the first well containing RPMI complete and serial 3 fold dilutions are made in the wells. The PBMC suspension is then added to the wells in an equal volume, bringing the test compound concentrations to the desired range (30-0.014 μM). The final concentration of PBMC suspension is 2×10^6 cells/mL. The plates are covered with sterile plastic lids, mixed gently and then incubated for 18 to 24 hours at 37° C. in a 5% carbon dioxide atmosphere.
(§5) Following incubation the plates are centrifuged for 10 minutes at 1000 rpm (˜200× g) at 4° C. The cell-free culture supernatant is removed with a sterile polypropylene pipet and transferred to sterile polypropylene tubes. Samples are maintained at −30 to −70° C. until analysis. The samples are analyzed for interferon (α) by ELISA and for tumor necrosis factor (α) by ELISA or IGEN Assay
Interferon (α) concentration is determined by ELISA using a Human Multi-Species kit from PBL Biomedical Laboratories, New Brunswick, N.J. Results are expressed in pg/mL.
(§6) The table below lists the lowest concentration found to induce interferon and the lowest concentration found to induce tumor necrosis factor for each compound.

[1] = system: tumor necrosis factor (α); test: Cytokine Induction in Human Cells: tumor necrosis factor; type: cell-based; conditions: human PBMC, 18 to 24 hours, tested 30-0.014 μM, TNF by ELISA or IGEN assay; read-out: Lowest Effective Concentration (μM) Tumor Necrosis Factor
Source text: as §1, §2, §3, §4, §5
Tumor necrosis factor (α) (TNF) concentration is determined using ELISA kits available from Biosource International, Camarillo, Calif. Alternately, the TNF concentration can be determined by Origen® M-Series Immunoassay and read on an IGEN M-8 analyzer from IGEN International, Gaithersburg, Md. The immunoassay uses a human TNF capture and detection antibody pair from Biosource International, Camarillo, Calif. Results are expressed in pg/mL.
as §6

| Compound | minimal effective concentration (interferon (α)) [µM] | minimal effective concentration [1] [µM] | melting point [°C] |
| --- | --- | --- | --- |
| CCCCc1nc2c(N)nc3ccccc3c2n1CCCS(C)(=O)=O [Example 19, 2-butyl-1-[3-(methylsulfonyl)propyl]-1H-imidazo[4,5-c]quinolin-4-amine] | 0.04 | 0.37 | 233 to 236 |
| CCCCc1nc2c(N)nc3ccccc3c2n1CCCCC[S+](C)[O-] (stereo not drawn) [Example 18, 2-butyl-1-[5-(methylsulfinyl)pentyl]-1H-imidazo[4,5-c]quinolin-4-amine] | 0.01 | 0.12 | 119 to 121 |
| CCCCc1nc2c(N)nc3ccccc3c2n1CCCC[S+](C)[O-] (stereo not drawn) [Example 31, 2-butyl-1-[4-(methylsulfinyl)butyl]-1H-imidazo[4,5-c]quinolin-4-amine] | 0.04 | 0.12 | 126 to 128 |
| Nc1nc2ccccc2c2c1ncn2CCCCS(=O)(=O)c1ccccc1 [Example 7, 1-[4-(phenylsulfonyl)butyl]-1H-imidazo[4,5-c]quinolin-4-amine] | 3.33 | 10 | 175 to 177 |
| CCc1nc2c(N)nc3ccccc3c2n1CCCSC [Example 24, 2-ethyl-1-[3-(methylthio)propyl]-1H-imidazo[4,5-c]quinolin-4-amine] | 0.12 | 0.37 | 210 to 212 |
| Cc1nc2c(N)nc3ccccc3c2n1CCCCS(C)(=O)=O [Example 34, 2-methyl-1-[4-(methylsulfonyl)butyl]-1H-imidazo[4,5-c]quinolin-4-amine] | 0.37 | 3.33 | 206 to 209 |
| CCCCc1nc2c(N)nc3ccccc3c2n1CCCCCSC [Example 17, 2-butyl-1-[5-(methylthio)pentyl]-1H-imidazo[4,5-c]quinolin-4-amine] | 0.01 | 0.04 | 112 to 114 |
| CCCCc1nc2c(N)nc3ccccc3c2n1CCCCSC [Example 4, 2-butyl-1-[4-(methylthio)butyl]-1H-imidazo[4,5-c]quinolin-4-amine] | 0.01 | 0.01 | 127 to 130 |
| CCCCc1nc2c(N)nc3ccccc3c2n1CCCCS(C)(=O)=O [Example 5, 2-butyl-1-[4-(methylsulfonyl)butyl]-1H-imidazo[4,5-c]quinolin-4-amine] | 0.01 | 0.04 | 164 to 165 |
| Nc1nc2ccccc2c2c1ncn2CCSc1ccccc1 [Example 6, 1-[2-(phenylthio)ethyl]-1H-imidazo[4,5-c]quinolin-4-amine] | 3.33 | 10 | 233 to 235 |
| Cc1nc2c(N)nc3ccccc3c2n1CCCCCCS(C)(=O)=O [Example 68, 2-methyl-1-[6-(methylsulfonyl)hexyl]-1H-imidazo[4,5-c]quinolin-4-amine] | 0.014 | 0.12 | 202 to 206 |
| Cc1nc2c(N)nc3ccccc3c2n1CCCC[S+](C)[O-] (stereo not drawn) [Example 27, 2-methyl-1-[4-(methylsulfinyl)butyl]-1H-imidazo[4,5-c]quinolin-4-amine] | 3.33 | 10 | 184 to 187 |
| COCCc1nc2c(N)nc3ccccc3c2n1CCCCCS(=O)(=O)c1ccccc1 [Example 70, 2-(2-methoxyethyl)-1-[5-(phenylsulfonyl)pentyl]-1H-imidazo[4,5-c]quinolin-4-amine] | 0.01 | 0.01 | 172 to 175 |
| CCCc1nc2c(N)nc3ccccc3c2n1CCCCCS(C)(=O)=O [Example 21, 1-[5-(methylsulfonyl)pentyl]-2-propyl-1H-imidazo[4,5-c]quinolin-4-amine] | 0.12 | 0.37 | 179 to 181 |
